This is an account of results in patent publication US6660767B2, “Coumarin compounds as microtubule stabilizing agents and therapeutic uses thereof” (The Regents of the University of California, priority 2001, dated 2003).

For one series, the system named is S. purpuratus embryos. Description: Inhibition of first cleavage (cell division) of sea urchin embryos. The class given is cell-based, Strongylocentrotus purpuratus. The settings on record: for inhibition of the first cleavage of S. purpuratus embryos: FIGS. 1-4; for IC50: Strongylocentrotus purpuratus, read-out: concentration required for half maximal inhibition of first cleavage. As to the method: (§1) Male and female Strongylocentrotus purpuratus or S. franciscanus were injected with 0.5 M KCl through the soft tissue of the oral surface into the coleomic cavity and were then cultured in filtered seawater by conventional methods in the art. See e.g. O'Brien, E. T., et al. (1989) Mol. Pharmacol. 35:635-642; and Jacobs, J. S. and L. Wilson (1986) Drugs Pharm. Sci. 27:481-493, which are herein incorporated by reference. Gametes were released into filtered seawater. The eggs were stirred and passed 3 times through a […] Nitex mesh (Tetko, Inc., Elmsford, N.Y.) to remove the jelly coating and then allowed to settle. The seawater was aspirated off and then the eggs were centrifuged for 4 minutes at 310 rpm. The eggs were resuspended at 1% (v/v) in filtered seawater and set aside. Fresh sperm were collected from the aboral surface of a male urchin. About 1 drop of concentrated sperm was collected into a test tube and 1 ml of seawater was added. A 1 ml aliquot of the sperm solution was added per 100 ml of suspended eggs and immediately mixed.
After 1 minute post-fertilization, about 1 ml of embryos were placed on a microscope slide and checked for percent fertilization under a 10× magnification with a light microscope. A visible fertilization membrane differentiates fertilized egg from the unfertilized. The fertilized embryos were then incubated with a coumarin compound no later than 5 minutes after initial fertilization. The embryos were incubated for about 2 hours at about 15° C. to about 17° C., or until the control embryos completed first division and were in the 2-cell stage. The amount of division was calculated in each test sample by counting the number of divided versus undivided embryos in a small sample of about 40 μL using the light microscope.
(§2) Quantitation of division was performed by counting the number of divided and nondivided embryos after the control embryos had progressed to the end of first cleavage (about 120 minutes after fertilization). […]

Series [1] deals with Lytechinus pictus embryos. Description: Inhibition of first cleavage of sea urchin embryos (dose-response). It is filed as cell-based.
For the next series, the system named is S. franciscanus embryos. The series is described as above. It is filed as cell-based. The method, then: as §1, with “Fresh sperm were collected from the aboral surface of a male urchin. About 1 drop of concentrated sperm was collected into a test tube and 1 ml of seawater was added. A 1 ml aliquot of the sperm solution was added per 100 ml of suspended eggs and immediately mixed.” left out
After 1 minute post-fertilization, about 1 ml of embryos were placed on a microscope slide and checked for percent fertilization under a 10× magnification with a light microscope. […] The amount of division was calculated in each test sample by counting the number of divided versus undivided embryos in a small sample of about 40 μL using the light microscope.
as §2

Series [2] has as its system sea urchin embryos. Description: Spindle microtubule and chromosome organization in sea urchin embryos (immunofluorescence, modified Balczon and Schatten). It is filed as cell-based, S. franciscanas. The settings on record: 50 μM dicoumarol. As to the method: Sea urchin embryos prepared according to Example 1 were used to study the effect of coumarin compounds on spindle microtubule organization and chromosome organization using immunofluorescence microscopy with specific antibodies for tubulin and DAPI was used to image the chromatin. Two different sea urchin embryo assay protocols were used.
Fixation and staining of embryos for immunofluorescence microscopy were performed according to a modified method of Balczon and Schatten ((1983) Cell Motility 3:213-226, which is herein incorporated by reference). […]. After extraction for 45 minutes, the embryos were fixed for 6 minutes with −10° C. methanol. After methanol fixation, the cells were rinsed for 5 minutes in PBS and then 25 μl of anti-α-tubulin monoclonal antibody (1:100) in PBS comprising 2% bovine serum albumin was added.
The embryos were incubated at 37° C. for about 60 to about 75 minutes and rinsed for 20 minutes in PBS after which 25 μl of a secondary staining solution comprising fluoroscein isothiocynate (FITC) conjugated to an anti-mouse IgG (1:100 in PBS) and DAPI (10 μg/ml) was added. The embryos were then incubated for 60 minutes at 37° C. and then rinsed for 20 minutes in PBS. Coverslips were mounted onto the slides with a solution of Vectashield® (Vector Laboratories, Inc., Burlingame, Calif.) and sealed with nail polish. […]

Another series has as its target tubulin (Bos taurus, UniProt P81947+Q6B856). Description: Turbidity (light scattering) polymerization assay with electron microscopy. It is filed as biochemical, bovine. The method, then:
To determine the rate and extent of the ability of a test compound to promote or inhibit microtubule polymerization (change in turbidity) a coumarin compound is added to a cuvet comprising about 1 mg/ml microtubule protein. The cuvet is incubated at 37° C. for 45 minutes in a spectrophotometer equipped with a heating unit and the absorbance is measured at about 340 nm. The change in absorbance is measured at intervals of 45 seconds over the 45-minute period and compared to the absorbance change induced by 1 mM GTP.
Specifically, 1.2 mg/ml of microtubule protein was mixed with different concentrations of dicoumarol in 100 mM PIPES, 1 mM MgCl2, and 1 mM EGTA (100 mM PEM buffer), and 1 mM guanosine 5′-triphosphate. Microtubule polymerization was monitored at 37° C. by light scattering at 350 nm using a Gilford Response Spectrophotometer.
10 μl aliquots were taken from spectrophotometrically followed reaction mixtures obtained during the course of the turbidity/light scattering assays at 10, 20, and 45 minutes and applied to 200-mesh carbon coated, Formavar-treated, copper grids (Ted Pella, Inc., Redding, Calif.). The sample was followed by several drops of 0.5% uranyl acetate and excess was drained off with filter paper. The grids were then examined with a Zeiss model 10CA electron microscope.

Series [3] deals with sea urchin embryos. Description: Cell cycle analysis: dicoumarol added at 10-minute intervals after fertilization. The settings on record: 50 μM dicoumarol added at 10-minute intervals; FIG. 5.
Experimental: The ability of dicoumarol to block cells in mitosis, like a mitotic spindle poison, was examined. The first mitosis typically occurs between about 70 to about 90 minutes after fertilization and cytokinesis is usually complete at about 120 minutes, giving rise to two blastomeres.
Specifically, aliquots were designated T-10, T-20, . . . T-120.

Entries after “also recorded” stand apart in the source; their conditions may differ. Like-named read-outs stand apart in the source and are kept apart here. A value given as a limit tells only on which side of the number the result lay.

Sequence of tubulin (Q6B856 whole entry): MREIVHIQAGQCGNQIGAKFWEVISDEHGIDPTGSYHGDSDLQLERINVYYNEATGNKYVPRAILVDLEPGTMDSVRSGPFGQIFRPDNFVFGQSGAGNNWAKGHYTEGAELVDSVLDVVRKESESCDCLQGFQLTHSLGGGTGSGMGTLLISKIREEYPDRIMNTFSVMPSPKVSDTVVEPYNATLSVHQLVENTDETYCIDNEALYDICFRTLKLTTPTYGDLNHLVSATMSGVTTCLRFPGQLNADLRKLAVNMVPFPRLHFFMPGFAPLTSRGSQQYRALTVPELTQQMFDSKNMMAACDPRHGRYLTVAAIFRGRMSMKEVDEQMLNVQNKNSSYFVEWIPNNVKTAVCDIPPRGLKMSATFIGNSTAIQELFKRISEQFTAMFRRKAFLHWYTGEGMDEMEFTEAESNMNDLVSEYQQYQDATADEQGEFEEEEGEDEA
Sequence of tubulin (P81947 whole entry): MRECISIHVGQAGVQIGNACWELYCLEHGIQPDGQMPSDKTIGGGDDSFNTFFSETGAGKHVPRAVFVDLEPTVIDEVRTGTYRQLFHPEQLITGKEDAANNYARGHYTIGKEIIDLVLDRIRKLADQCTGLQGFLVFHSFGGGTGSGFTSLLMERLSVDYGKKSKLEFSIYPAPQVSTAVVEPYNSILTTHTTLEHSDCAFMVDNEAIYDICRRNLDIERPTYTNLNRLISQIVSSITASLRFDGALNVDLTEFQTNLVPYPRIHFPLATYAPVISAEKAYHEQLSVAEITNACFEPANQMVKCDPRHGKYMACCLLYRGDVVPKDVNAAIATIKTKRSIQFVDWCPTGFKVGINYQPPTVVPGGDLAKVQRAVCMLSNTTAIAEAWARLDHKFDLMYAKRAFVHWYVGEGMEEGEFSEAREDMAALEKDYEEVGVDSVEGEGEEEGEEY

Consider `O=c1ccc2ccc(O)cc2o1` [7-hydroxycoumarin], for which the “inhibition of the first cleavage of S. purpuratus embryos” value (from here on “inhibition … of S. purpuratus embryos”) with S. purpuratus embryos is “inhibited the first cleavage”. Besides, the IC50 with S. purpuratus embryos (S. purpuratus embryos, first cleavage) was approximately 40 µM.
Consider `CC(=O)CC(c1ccccc1)c1c(O)c2ccccc2oc1=O` (centres unmarked) [warfarin], for which the “inhibition … of S. purpuratus embryos” value in the series with S. purpuratus embryos is “inhibited the first cleavage”.
Take `O=c1ccc2ccccc2o1` [coumarin]: the “inhibition … of S. purpuratus embryos” value in the series on S. purpuratus embryos is “inhibited the first cleavage”.
`O=c1oc2ccccc2c(O)c1Cc1c(O)c2ccccc2oc1=O` [dicoumarol]: the “inhibition … of S. purpuratus embryos” value in the series with S. purpuratus embryos was “inhibited the first cleavage”. The “concentration at which cell division was completely blocked” value with S. purpuratus embryos (S. purpuratus embryos) was not below 20 µM. In the series on S. purpuratus embryos, the IC50 is approximately 4 µM. Moreover, the “lysis or morphological changes of treated embryos” value in the series on S. purpuratus embryos (dicoumarol treated embryos) is “no lysis or morphological changes”. Moreover, the “dose-response curve of cleavage inhibition” value (in series [1]; in the series with S. franciscanus embryos) was “identical to those obtained using S. purpuratus” each time. The chromosome organization entry in the series on sea urchin embryos [2] was “disorganized chromosomes that had not congressed to the metaphase plate”. Moreover, the “microtubules of mitotic spindles” value in the series on sea urchin embryos [2] was “bipolar, but appeared to be longer and located outside an intact nuclear envelope”. The “microtubule formation by electron microscopy” value was “microtubules were produced” at tubulin (100 μM dicoumarol, polymerization prolonged to 45 minutes); “revealed actual microtubule structures” on tubulin (axonemal seeded microtubules, 20 μM dicoumarol); “No microtubules were formed” at tubulin (polymerization for 10 and 20 minutes, no axonemes). Further, the “rate and extent of polymerization of tubulin (turbidity)” value on tubulin (tubulin 12 μM, dicoumarol 0 μM-80 μM, FIG. 9) was “increased the rate and extent of tubulin polymerization; also recorded: concentration-dependent increase”. The “inhibition of first cleavage versus time of addition after fertilization” value in the series on sea urchin embryos [3] is given as “rapidly declined when dicoumarol was added 90 minutes after fertilization; also recorded: blocked if added after metaphase (90 minutes)”.
